From ChEMBL document CHEMBL4823308, “Optimization of Triarylpyridinone Inhibitors of the Main Protease of SARS-CoV-2 to Low-Nanomolar Antiviral Potency” (ACS Med Chem Lett, 2021)
Converted amounts (≈) assume the structure as drawn.

Key:
[1] = test system: Vero C1008; details: chlorocebus sabaeus, vero c1008, 72 h
Description: (§1) Cytotoxicity against African green monkey Vero E6 cells after 72 hrs by MTT assay

[2] = test system: 16HBE14o-; details: human, 72 h
Description: (§2) Cytotoxicity against human 16HBE14o- after 72 hrs by MTT assay

[3] = test system: SARS-CoV-2; details: 16hbe14o-
Description: Antiviral activity against SARS-CoV-2 infected in 16HBE14o- cells assessed as inhibition of viral replication after 1 day by Nano-Glo luciferase assay

[4] = in vitro; details: human, 16HBE14o- cells
Description: as §2

[5] = pampa, pH 7.4, 18 h
Description: (§3) Permeability of compound in PBS at pH 7.4 after 18 hrs by PAMPA

[6] = Aqueous solubility of the compound in Britton-Robinson buffer at pH 6.5 after 48 hrs by shake flask method; format: physicochemical
[7] = in vitro; details: chlorocebus sabaeus, Vero E6 cells
Description: as §1

[8] = in vitro; details: PAMPA, pH 7.4
Description: as §3

Cc1scnc1COc1cc(Cl)cc(-c2cc(-c3c[nH]c(=O)[nH]c3=O)cn(-c3cccnc3)c2=O)c1
CC50 [1]: > 100 µM | CC50 [2]: 22 µM

O=c1[nH]cc(-c2cc(-c3cc(Cl)cc(OCc4scnc4C(F)(F)F)c3)c(=O)n(-c3cccnc3)c2)c(=O)[nH]1
EC50 [3]: Not Active | CC50 at 72 h [4]: > 100 µM | CC50 [1]: > 100 µM

O=c1[nH]cc(-c2cc(-c3cc(Cl)c(F)c(OCc4ccccc4Cl)c3)c(=O)n(-c3cccnc3)c2)c(=O)[nH]1
CC50 at 72 h [4]: > 95 µM | CC50 [1]: > 80 µM | permeability [5]: 0.73 10^-6 cm/s | solubility thermodynamic at 48 h [6]: 21.8 µg/mL (≈ 39.5 µM)

Cn1cc(-c2cc(-c3cc(Cl)cc(OCC4CC4)c3)c(=O)n(-c3cccnc3)c2)c(=O)[nH]c1=O
CC50 at 72 h [4]: > 100 µM | CC50 [1]: 82 µM | permeability [5]: 3.25 10^-6 cm/s | solubility thermodynamic at 48 h [6]: 14.2 µg/mL (≈ 29.8 µM)

CCC(CC)COC(=O)[C@H](C)N[P@](=O)(OC[C@H]1O[C@@](C#N)(c2ccc3c(N)ncnn23)[C@H](O)[C@@H]1O)Oc1ccccc1
CC50 at 72 h [4]: 41 µM | CC50 at 72 h [7]: 72 µM

Cc1ocnc1COc1cc(Cl)cc(-c2cc(-c3c[nH]c(=O)[nH]c3=O)cn(-c3cccnc3)c2=O)c1
solubility thermodynamic at 48 h [6]: 7.6 µg/mL (≈ 15.1 µM)

Cn1cc(-c2cc(-c3cc(Cl)cc(OCc4scnc4C(F)(F)F)c3)c(=O)n(-c3cccnc3)c2)c(=O)[nH]c1=O
CC50 at 72 h [4]: > 100 µM | CC50 [1]: > 100 µM | permeability [5]: 1.16 10^-6 cm/s | solubility thermodynamic at 48 h [6]: 24.8 µg/mL (≈ 42.2 µM)

Cn1cc(-c2cc(-c3cc(Cl)cc(OCCC(F)(F)F)c3)c(=O)n(-c3cccnc3)c2)c(=O)[nH]c1=O
CC50 at 72 h [4]: 95 µM | CC50 [1]: > 100 µM | permeability [5]: 2.26 10^-6 cm/s | solubility thermodynamic at 48 h [6]: 57 µg/mL (≈ 110 µM)

N#Cc1ccccc1-c1cc(-c2cc(Cl)cc(OCCC(F)(F)F)c2)c(=O)n(-c2cccnc2)c1
CC50 at 72 h [4]: 25 µM | permeability [5]: 4 10^-6 cm/s | CC50 at 72 h [7]: 22 µM | solubility thermodynamic at 48 h [6]: 25 µg/mL (≈ 50.4 µM)

Cc1ocnc1COc1cc(Cl)cc(-c2cc(-c3ccccc3C#N)cn(-c3cccnc3)c2=O)c1
permeability [5]: 3.04 10^-6 cm/s | solubility thermodynamic at 48 h [6]: 13.1 µg/mL (≈ 26.5 µM)

Cn1c(=O)c2[nH]cnc2n(C)c1=O.O [THEOPHYLLINE]
Papp at 18 h [8]: 0.3 ×10⁻⁶ cm/s

O=C(N[C@H](CO)[C@H](O)c1ccc([N+](=O)[O-])cc1)C(Cl)Cl [CHLORAMPHENICOL]
Papp at 18 h [8]: 5 ×10⁻⁶ cm/s

O=c1[nH]cc(-c2cc(-c3cc(Cl)cc(OCc4ocnc4C(F)(F)F)c3)c(=O)n(-c3cccnc3)c2)c(=O)[nH]1
EC50 [3]: Not Active | CC50 at 72 h [4]: > 100 µM | CC50 [1]: > 100 µM | permeability [5]: 0.57 10^-6 cm/s

Cc1ncoc1COc1cc(Cl)cc(-c2cc(-c3c[nH]c(=O)[nH]c3=O)cn(-c3cccnc3)c2=O)c1
permeability [5]: 0.24 10^-6 cm/s | solubility thermodynamic at 48 h [6]: 168 µg/mL (≈ 333 µM)

N#Cc1ccccc1-c1cc(-c2cc(Cl)cc(OCC3CC3)c2)c(=O)n(-c2cccnc2)c1
CC50 at 72 h [4]: > 100 µM | permeability [5]: 4.27 10^-6 cm/s | CC50 at 72 h [7]: > 100 µM | solubility thermodynamic at 48 h [6]: 3 µg/mL (≈ 6.61 µM)

Cn1cc(-c2cc(-c3cc(Cl)cc(OCc4ocnc4C(F)(F)F)c3)c(=O)n(-c3cccnc3)c2)c(=O)[nH]c1=O
permeability [5]: 1.03 10^-6 cm/s | solubility thermodynamic at 48 h [6]: 34.5 µg/mL (≈ 60.3 µM)

CCCOc1cc(Cl)cc(-c2cc(-c3ccccc3C#N)cn(-c3cccnc3)c2=O)c1
CC50 at 72 h [4]: 20 µM | CC50 at 72 h [7]: 22 µM

Cn1cc(-c2cc(-c3cc(Cl)c(F)c(OCc4ccccc4Cl)c3)c(=O)n(-c3cccnc3)c2)c(=O)[nH]c1=O
CC50 at 72 h [4]: > 32.5 µM | CC50 [1]: > 32.5 µM | solubility thermodynamic at 48 h [6]: 116 µg/mL (≈ 206 µM)
